Measurements: article PMC6982702, “Extensive Structure Modification on Luteolin-Cinnamic Acid Conjugates Leading to BACE1 Inhibitors with Optimal Pharmacological Properties” (Molecules, 2019)

How the values were obtained:
BACE1 = molecular target: T1, BACE1 (Homo sapiens, UniProt P56817); assay: In vitro BACE1 FRET enzyme assay; format: biochemical; settings: BACE1 FRET assay; for inhibition at 10 µM: 10 μM compound, read-out: Inhibition Rate at 10 μM (%)
T1 construct: purchased PanVera Co. (Invitrogen, USA)
T1 sequence (P56817 46-501): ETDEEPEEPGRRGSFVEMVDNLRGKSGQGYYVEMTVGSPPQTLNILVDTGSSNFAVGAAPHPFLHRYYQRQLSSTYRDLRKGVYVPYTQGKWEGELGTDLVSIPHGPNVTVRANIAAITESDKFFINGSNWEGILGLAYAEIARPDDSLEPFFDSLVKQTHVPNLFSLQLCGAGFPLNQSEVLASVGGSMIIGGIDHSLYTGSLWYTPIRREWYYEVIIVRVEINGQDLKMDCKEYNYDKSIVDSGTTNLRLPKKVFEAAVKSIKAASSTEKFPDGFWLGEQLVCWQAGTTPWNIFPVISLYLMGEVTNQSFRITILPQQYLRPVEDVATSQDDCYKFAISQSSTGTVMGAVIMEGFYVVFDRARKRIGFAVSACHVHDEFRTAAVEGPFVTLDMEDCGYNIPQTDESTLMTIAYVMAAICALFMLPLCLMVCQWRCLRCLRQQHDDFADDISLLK
Procedure: The BACE1 FRET assay kit was purchased from the PanVera Co. (Invitrogen, USA). The assay was carried out according to the supplied manual with modifications. […] The fluorescence intensity was measured with a TECAN infinite 200 microplate reader for 60 min at 25 °C in the dark. […] The percent inhibition (%) was obtained by the following equation: Inhibition % = (1 −SS/SC) × 100%, where SC is the slope of fluorescence change of the control (enzyme, buffer, and substrate) during 60 min, and SS is the slope of fluorescence change of the tested samples (enzyme, sample solution, and substrate) during 60 min of measurement. IC50 values were calculated from the nonlinear curve fitting of percentage inhibition against inhibitor concentration using Prism 3.0 software (GraphPad Software, San Diego, CA, USA).

MTT cytotoxicity assay = format: cell-based; settings: human, 24 h exposure
Procedure: It is crucial for the BACE1 inhibitors to exert their activities at sub-toxic concentration, and thus their cytotoxicity was assessed in HEK293 cells by 3-[4,5-dimethylthiazol-2-yl]-2,5-diphenyl-tetrazolium bromide (MTT) assays (Table 5). […] Unfortunately, there was no obvious relationship between the structures and their cytotoxicity.
The cytotoxicity was examined by using 3-[4,5-dimethylthiazol-2-yl]-2,5-diphenyl-tetrazolium bromide (MTT) assay. HEK293T cells were seeded with complete DMEM into 96-well plates ([…], 100 µL/well), incubated at 37 °C in a humidified atmosphere with 5% CO2 for 24 h. All the compounds were diluted with the phenol red-free DMEM at a specific concentration. After 24 h of exposure to different concentrations of compound, the supernatant was removed and then 20% (v/v) MTT (5 mg/mL) diluted with fresh culture medium was added into each well and incubated for 4 h. Cells were lysed with 100 μL dimethyl sulfoxide (DMSO) and shaken for 10 min at room temperature. The absorbance in each well was detected at a wavelength of 490 nm using a Universal Microplate Reader (ELX 800 lv, BIO-TEK Instruments, Inc., Winooski, VT, USA).

[1] = HEK293 cells (method text: HEK293T)

Structure (SMILES) | inhibition at 10 µM (BACE1) [%] | IC50 (BACE1) [µM] | IC50 at 24 h (MTT cytotoxicity assay; [1]) [µM] | IC50 at 24 h (MTT cytotoxicity assay; HEK293 cells (method text: HEK293T cells)) [µM]
CC(=O)Oc1ccc(/C=C/C(=O)Oc2cccc(-c3cc(=O)c4c(O)cc(O)cc4o3)c2)cc1 [Compound 4a] | 23.9 ± 2.95 |  |  | 
O=C(/C=C/c1ccc(O)cc1)Oc1cccc(-c2cc(=O)c3c(O)cc(O)cc3o2)c1 [Compound 4b] | 14.8 ± 7.35 |  |  | 
CC(=O)Oc1ccc(/C=C/C(=O)OCCOc2cccc(-c3cc(=O)c4c(O)cc(O)cc4o3)c2)cc1 [Compound 4c] | 31.8 ± 5.25 |  |  | 
O=C(/C=C/c1ccc(O)cc1)OCCOc1cccc(-c2cc(=O)c3c(O)cc(O)cc3o2)c1 [Compound 4d] | 39.6 ± 12.5 |  |  | 
CC(=O)Oc1ccc(/C=C/C(=O)Oc2ccc(-c3cc(=O)c4c(O)cc(O)cc4o3)cc2)cc1 [Compound 4e] | 1.9 ± 10.3 |  |  | 
O=C(/C=C/c1ccc(O)cc1)Oc1ccc(-c2cc(=O)c3c(O)cc(O)cc3o2)cc1 [Compound 4f] | 29.4 ± 5.5 |  |  | 
CC(=O)Oc1ccc(/C=C/C(=O)OCCOc2ccc(-c3cc(=O)c4c(O)cc(O)cc4o3)cc2)cc1 [Compound 4g] | 17.1 ± 6 |  |  | 
O=C(/C=C/c1ccc(O)cc1)OCCOc1ccc(-c2cc(=O)c3c(O)cc(O)cc3o2)cc1 [Compound 4h] | 36 ± 4.2 |  |  | 
O=C(/C=C/c1ccc(O)cc1)OCCOCCOc1ccc(-c2cc(=O)c3c(O)cc(O)cc3o2)cc1 [Compound 4i] | 37 ± 8.6 |  |  | 
O=C(/C=C/c1ccc(O)cc1)OCCOc1c(-c2ccc(O)c(O)c2)oc2cc(O)cc(O)c2c1=O [Compound 4j, 2-((2-(3,4-dihydroxyphenyl)-5,7-dihydroxy-4-oxo-4H-chromen-3-yl)oxy)ethyl(E)-3-(4-hydroxyphenyl)acrylate] | 59.2 ± 6.3 | 6.78 ± 0.83 |  | 
O=C(/C=C/c1ccc(O)cc1)OCCOc1ccc2oc(-c3ccc(O)c(O)c3)cc(=O)c2c1 [Compound 4k] | 60.6 ± 5.3 | 12.9 ± 1.14 |  | 
O=C(/C=C/c1ccc(O)cc1)OCCCOc1cc(O)c2c(=O)cc(-c3ccc(O)c(O)c3)oc2c1 [Compound 5a, (E)-3-((2-(3,4-dihydroxyphenyl)-5-hydroxy-4-oxo-4H-chromen-7-yl)oxy)propyl 3-(4-hydroxyphenyl)acrylate] | 81.4 ± 3.8 | 5.26 ± 0.72 |  | 
O=C(/C=C/c1ccc(O)cc1)OCCCCOc1cc(O)c2c(=O)cc(-c3ccc(O)c(O)c3)oc2c1 [Compound 5b, (E)-4-((2-(3,4-dihydroxyphenyl)-5-hydroxy-4-oxo-4H-chromen-7-yl)oxy)butyl 3-(4-hydroxyphenyl)acrylate] | 68.1 ± 5.8 | 10.4 ± 1.02 |  | 
O=C(/C=C/c1ccc(O)cc1)OCCCCCOc1cc(O)c2c(=O)cc(-c3ccc(O)c(O)c3)oc2c1 [Compound 5c, (E)-5-((2-(3,4-dihydroxyphenyl)-5-hydroxy-4-oxo-4H-chromen-7-yl)oxy)pentyl 3-(4-hydroxyphenyl)acrylate] | 62.6 ± 6.4 | 20.6 ± 1.44 |  | 
O=C(/C=C/c1ccc(O)cc1)OCCCCCCOc1cc(O)c2c(=O)cc(-c3ccc(O)c(O)c3)oc2c1 [Compound 5d, (E)-6-((2-(3,4-dihydroxyphenyl)-5-hydroxy-4-oxo-4H-chromen-7-yl)oxy)hexyl 3-(4-hydroxyphenyl)acrylate] | 42.4 ± 3.2 |  |  | 
O=C(/C=C/c1ccc(O)cc1)OCCCCCCCCOc1cc(O)c2c(=O)cc(-c3ccc(O)c(O)c3)oc2c1 [Compound 5e, (E)-8-((2-(3,4-dihydroxyphenyl)-5-hydroxy-4-oxo-4H-chromen-7-yl)oxy)octyl 3-(4-hydroxyphenyl)acrylate] | 36.1 ± 2.6 |  |  | 

Structure (SMILES) | inhibition at 10 µM (BACE1) [%] | IC50 (BACE1) [µM] | IC50 at 24 h (MTT cytotoxicity assay; [1]) [µM] | IC50 at 24 h (MTT cytotoxicity assay; HEK293 cells (method text: HEK293T cells)) [µM]
O=C(/C=C/c1ccc(O)cc1)OCCCCCCCCCCOc1cc(O)c2c(=O)cc(-c3ccc(O)c(O)c3)oc2c1 [Compound 5f, (E)-10-((2-(3,4-dihydroxyphenyl)-5-hydroxy-4-oxo-4H-chromen-7-yl)oxy)decyl 3-(4-hydroxyphenyl)acrylate] | 58.2 ± 3.3 | 27.8 ± 1.34 |  | 
O=C(/C=C/c1ccc(O)cc1)Oc1cc(O)c2c(=O)cc(-c3ccc(O)c(O)c3)oc2c1 [Compound 5g] | 41.4 ± 4.4 |  | 4.21 | 
O=C(/C=C/c1ccc(O)cc1)OCCOc1cc(O)c2c(=O)cc(-c3ccccc3)oc2c1 [Compound 6] | 20.5 ± 4.4 |  | 28.3 | 
O=C(C=Cc1ccccc1)OCCOc1cc(O)c2c(=O)cc(-c3ccc(O)c(O)c3)oc2c1 [Compound 7a, 2-((2-(3,4-dihydroxyphenyl)-5-hydroxy-4-oxo-4H-chromen-7-yl)oxy)ethyl cinnamate] | 57.5 ± 7.5 | 2.49 ± 0.32 | > 100 | 
O=C(/C=C/c1ccc(O)c(O)c1)OCCOc1cc(O)c2c(=O)cc(-c3ccc(O)c(O)c3)oc2c1 [Compound 7d] |  |  |  | 16.7
O=C(/C=C/c1ccc(F)cc1)OCCOc1cc(O)c2c(=O)cc(-c3ccc(O)c(O)c3)oc2c1 [Compound 7e, (E)-2-((2-(3,4-dihydroxyphenyl)-5-hydroxy-4-oxo-4H-chromen-7-yl)oxy)ethyl 3-(4-fluorophenyl)acrylate] | 28.5 ± 7.1 |  | 16.8 | 
O=C(/C=C/c1ccc(Cl)cc1)OCCOc1cc(O)c2c(=O)cc(-c3ccc(O)c(O)c3)oc2c1 [Compound 7f, (E)-2-((2-(3,4-dihydroxyphenyl)-5-hydroxy-4-oxo-4H-chromen-7-yl)oxy)ethyl 3-(4-chlorophenyl)acrylate] | 21.3 ± 7.1 |  | 9.97 | 
O=C(/C=C/c1ccc([N+](=O)[O-])cc1)OCCOc1cc(O)c2c(=O)cc(-c3ccc(O)c(O)c3)oc2c1 [Compound 7g, (E)-2-((2-(3,4-dihydroxyphenyl)-5-hydroxy-4-oxo-4H-chromen-7-yl)oxy)ethyl 3-(4-nitrophenyl)acrylate] | 73.9 ± 7.1 | 0.96 ± 1.55 | 21.8 | 
CN(C)c1ccc(/C=C/C(=O)OCCOc2cc(O)c3c(=O)cc(-c4ccc(O)c(O)c4)oc3c2)cc1 [Compound 7h, (E)-2-((2-(3,4-dihydroxyphenyl)-5-hydroxy-4-oxo-4H-chromen-7-yl)oxy)ethyl 3-(4-(dimethylamino)phenyl)acrylate] | 53.8 ± 4.4 | 6.58 ± 1.16 | > 100 | 
CC(C)(C)c1ccc(/C=C/C(=O)OCCOc2cc(O)c3c(=O)cc(-c4ccc(O)c(O)c4)oc3c2)cc1 [Compound 7j, (E)-2-((2-(3,4-dihydroxyphenyl)-5-hydroxy-4-oxo-4H-chromen-7-yl)oxy)ethyl 3-(4-(tert-butyl)phenyl)acrylate] | 37.6 ± 4.4 |  | 20.3 | 
O=C(/C=C/c1ccoc1)OCCOc1cc(O)c2c(=O)cc(-c3ccc(O)c(O)c3)oc2c1 [Compound 7l, (E)-2-((2-(3,4-dihydroxyphenyl)-5-hydroxy-4-oxo-4H-chromen-7-yl)oxy)ethyl 3-(furan-3-yl)acrylate] | 59.5 ± 7.1 | 0.37 ± 0.25 | 9.51 | 
O=C(/C=C/C1CCCCC1)OCCOc1cc(O)c2c(=O)cc(-c3ccc(O)c(O)c3)oc2c1 [Compound 7m, (E)-2-((2-(3,4-dihydroxyphenyl)-5-hydroxy-4-oxo-4H-chromen-7-yl)oxy)ethyl 3-cyclohexylacrylate] | 22.2 ± 7.1 |  | 14.4 | 
O=C(OCCOc1cc(O)c2c(=O)cc(-c3ccc(O)c(O)c3)oc2c1)c1ccc(O)cc1 [Compound 7o, 2-((2-(3,4-dihydroxyphenyl)-5-hydroxy-4-oxo-4H-chromen-7-yl)oxy)ethyl 4-hydroxybenzoate] | 51.9 ± 1.9 |  | 10.3 | 
O=C(CCc1ccc(O)cc1)OCCOc1cc(O)c2c(=O)cc(-c3ccc(O)c(O)c3)oc2c1 [Compound 7p, 2-((2-(3,4-dihydroxyphenyl)-5-hydroxy-4-oxo-4H-chromen-7-yl)oxy)ethyl 3-(4-hydroxyphenyl)propanoate] | 56.7 ± 4.4 | 4.39 ± 0.34 | 90 | 
CC(=O)Oc1ccc(/C=C/C(=O)OCCOc2cc(O)c3c(=O)cc(-c4ccc(O)c(O)c4)oc3c2)cc1 [Compound 7q, (E)-2-((2-(3,4-dihydroxyphenyl)-5-hydroxy-4-oxo-4H-chromen-7-yl)oxy)ethyl 3-(4-acetoxyphenyl)acrylate] | 25.7 ± 4.6 |  | > 100 | 
